Laboratory results from article PMC8891108, “Development and characterization of anti-fibrotic natural compound similars with improved effectivity” (Basic Research in Cardiology, 2022).

How the values were obtained:
Format in all cases: cell-based
[1] = system: human cardiac fibroblasts (HCF); experiment: TaqMan Array Human MicroRNA Cards, miRNA deregulation in HCF
Procedure: PCR amplification of array cards was performed as instructed. After quality control of all real-time qPCRs, cT values were exported and all runs were merged into a single excel file. Recommended baseline correction using relative thresholds to correct for varying reconstitution rates of different Taqman probes was not performed. Low-expressed miRNAs with cT > 32 in more than 1 replicate per treatment were excluded from analysis, before samples were normalized to column mean. Multiple unpaired t tests were performed using GraphPad Prism, deregulations were accepted as discoveries if FDR ≤ 1% (using BKY adjustment). As miRNA identifiers were based on miRbase v14, we converted them to the latest v22 for further analysis using miRBaseConverter. 747 sequences could be converted correctly, while the remaining miRNAs were removed from miRbase due to incorrect annotation (e.g. the sequences of hsa-miR-886-3p and hsa-miR-886-5p are part of VTRNA2-1 [44]) or no evidence of human expression.

[2] = system: human cardiac fibroblasts (HCF); experiment: Caspase-3/7 activation (Caspase-Glo) in HCF; settings: within the tested concentration range
Procedure: As contrast to activity, toxicity of top six similars and lead compounds was determined by a multiplex measurement of caspase activation and membrane integrity (using LDH release and inclusion of the CellTox Green dye). Briefly, HCFs were seeded as before. After 24 h, cells were treated with serial dilutions of compounds with additional 0.1% CellTox™ Green dye (Promega, #G8741). After 24 h incubation, 5 µL medium was removed from each well, mixed with 95 µL LDH Storage buffer (Promega, #J2380) and frozen for later analysis. 95 µL Caspase-Glo® 3/7 reagent (Promega, #G8090) was added to each well, and after 60 min of incubation luminescence was measured in a Synergy HT. Afterwards, micrographs of brightfield and green fluorescence were taken using a Cytation 1 (BioTek) automated microscope maintaining 37 °C and 5% CO2. Wells were manually checked for co-localization of fluorescence signal with cells in brightfield. On the next day, supernatants in LDH Storage buffer were thawed, and 50 µL was mixed with 50 µL of LDH Detection reagent and luminescence was measured after 60 min of incubation. Dose–response curves were determined as described before. To determine toxicity of the top 3 anti-fibrotic similars in hiPS-CM, 20,000 cells/well were seeded, treated and analysed as above, devoid the fluorescent dye steps.

[3] = system: human cardiac fibroblasts (HCF); experiment: In vitro migration (scratch) assay of HCF; settings: 10 × EC50
Procedure: To assess migrative capabilities of HCF, cells were stained with 1:1000 1,1′-Dioctadecyl-3,3,3′,3′-Tetramethylindotricarbocyanine Iodide (DIR′) dye in FGM-3 for 20 min at 37 °C. Cells were washed with DPBS and seeded into 0.1% gelatine-coated 96-well plates at 30,000 cells per well. […] After 17 h and 24 h, plates were imaged again. Rate of migration was determined using the migrative index (MI).

[4] = system: human cardiac fibroblasts (HCF); experiment: BrdU incorporation, HCF proliferation (first screen); settings: Homo sapiens, Cardiac fibroblast, 24 h, read-out: Effective conc. (BrdU), EC50 by BrdU assay
Procedure: 96-well plates (TPP) were coated with 0.1% gelatine and seeded with 7500 HCFs/well. After 72 h, medium was exchanged with serial dilutions of compounds in FGM-3 + 1.6% DMSO + 1% 5-bromo-2′-deoxyuridine (BrdU, Roche, #11647229001), prepared in additional plates. After 24 h, cells were washed twice with DPBS (Gibco, #14190144) before incubation with anti-BrdU:POD (Roche, #11647229001) for 60 min (RT). Readout was performed by measurement of absorbance at 370 nm + 490 nm in a Synergy HT (BioTek) microplate reader. […] As validation, HCF were seeded as before, but treated with serial dilutions of compounds after 24 h. […] After 60 min of incubation (37 °C, in the dark), absorbance at 450 nm + 630 nm was measured maintaining 37 °C and analysed as described before.
To assess screening quality, quality acceptance criteria Z′ (Z prime), SW (signal window), S:B (signal-to-background), S:N (signal-to-noise) were determined following. Average Z′ ≥ 0.5 and SW ≥ 2 were required to accept the screening overall, whereas single plates were rejected from analysis if Z′ < 0.3 or SW < 1.

[5] = mean of DMSO minus mean of treatment

SMILES: C[C@]12CC[C@H](O)C[C@H]1CC[C@@H]1[C@@H]2CC[C@]2(C)[C@@H](c3ccc(=O)oc3)CC[C@]12O [Bufalin, bufalin]
- Mean of treatment, hsa-miR-125a-5p-002198 ([1]; cT normalized to column mean): -1.094
- Mean of treatment, hsa-miR-132-000457 ([1]; cT normalized to column mean): -3.644
- Mean of treatment, hsa-miR-146a-000468 ([1]; cT normalized to column mean): -6.478
- Mean of treatment, hsa-miR-886-3p-002194 ([1]; cT normalized to column mean): -0.5419
- Difference / ΔCT, hsa-miR-125a-5p-002198 [1, 5]: -1.48
- Difference / ΔCT, hsa-miR-132-000457 [1, 5]: 1.1
- Difference / ΔCT, hsa-miR-146a-000468 [1, 5]: -1.167
- Difference / ΔCT, hsa-miR-886-3p-002194 [1, 5]: -2.302
- induction of Caspase-3/7 [2]: dose-dependent induction of Caspase-3/7
- HCF migration [3]: nearly complete lack of migration within the first half hour
- EC50 [4]: 2.1 nM
